Results taken from patent US8981094B2, “Piperidine/piperazine derivatives” (Janssen Pharmaceutica N.V., priority 2007, dated 2015).

target: T1, human DGAT1 (Homo sapiens, UniProt O75907); assay: Inhibition of DGAT1 activity, FlashPlate assay with DGAT1 membrane preparations and substrate micelles; assay type: biochemical; conditions: pIC50 = -logIC50, IC50 values expressed in M
T1 construct: FLAG (N); made in house; host or cells: SF9 insect cells (pFastBac baculovirus); total cell membranes
T1 sequence (O75907 1-488): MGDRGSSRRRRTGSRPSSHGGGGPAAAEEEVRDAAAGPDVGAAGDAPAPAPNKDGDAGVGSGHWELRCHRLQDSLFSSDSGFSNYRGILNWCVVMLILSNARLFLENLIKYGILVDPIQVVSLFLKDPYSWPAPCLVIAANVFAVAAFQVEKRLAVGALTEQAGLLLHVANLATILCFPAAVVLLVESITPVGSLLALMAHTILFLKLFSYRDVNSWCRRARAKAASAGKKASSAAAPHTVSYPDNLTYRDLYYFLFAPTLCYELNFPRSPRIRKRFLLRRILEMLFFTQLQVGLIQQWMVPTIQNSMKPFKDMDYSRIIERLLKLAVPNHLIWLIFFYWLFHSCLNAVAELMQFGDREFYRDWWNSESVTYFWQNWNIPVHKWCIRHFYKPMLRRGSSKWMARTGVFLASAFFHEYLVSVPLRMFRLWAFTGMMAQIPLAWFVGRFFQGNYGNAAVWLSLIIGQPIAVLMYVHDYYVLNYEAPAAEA
From the text: A) Measurement of Inhibition of DGAT1 Activity by the Present Compounds
The inhibiting activity of the present compounds on DGAT1 activity was screened in a single well procedure assay using DGAT1 comprising membrane preparations and DGAT1 substrate comprising micelles and determining formed radio-active triacylglycerol coming in close proximity of a flashplate surface by radio luminescence.
Said assay is described in full detail in WO2006/067071, the content of which is incorporated herein by reference.
By DGAT1 activity is meant the transfer of coenzyme A activated fatty acids to the 3-position of 1,2-diacylglycerols, thus forming a triglyceride molecule, by enzyme DGAT1.
human DGAT1 (NM012079.2) was cloned into the pFastBac vector, containing translation start, a FLAG-tag at the N-terminus as described in literature and a viral Kozak sequence (AAX) preceding the ATG to improve expression in insect cells. Expression was done as described in literature (Cases, S., Smith, S. J., Zheng, Y., Myers H. M., Lear, S. R., Sande, E., Novak, S., Collins, C., Welch, C. B., Lusis, A. J., Erickson, S. K. and Farese, R. V. (1998) Proc. Natl. Acad. Sci. USA 95, 13018-13023.) using SF9 cells.
72 h transfected SF9 cells were collected by centrifugation (13000 rpm-15 min-4° C.) and lysed in 2×500 ml lysisbuffer (0.1M Sucrose, 50 mM KCl, 40 mM KH2PO4, 30 mM EDTA pH 7.2. Cells were homogenized by cell disruptor. After centrifugation 1380 rpm-15 min-4° C. (SN discarded), pellet was resuspended in 500 ml lysisbuffer and total cell membranes collected by ultracentrifugation at 34000 rpm(100 000 g) for 60 min (4° C.). The collected membranes were resuspended in lysis buffer, divided in aliquots and stored with 10% glycerol at −80° C. until use.
Add 1 ml dioleoyl-sn-glycerol (10 mg/ml) to 10 ml of L-α-phosphatidylcholine (1 mg/ml) and 10 ml of L-α-phosphatidyl-L-serine (1 mg/ml) in a thick glass recipient. Evaporate under nitrogen and put on ice for 15 minutes. Reconstitute in 10 ml Tris/HCl (10 mM, pH 7.4) by sonication on ice. The sonification process consists of sonification cycles of 10 seconds in the sonification bath followed by 10 seconds cool down on ice and repeating this sonification cycle till a homogeneous solution is obtained (takes about 15 minutes). The thus obtained micelles are stored at −20° C. till later use and contain DAG at a final concentration of 1.61 mM.
c) Substrate mix (for 1 384 well plate=3840 μl) • 612 μl micelles stock (51 μM final) • 16.6 μl oleoylCoA 9.7 mM • 23 μl [^3H]-oleoylCoA (49 Ci/mmol, 500 μCi/ml) • 3188.4 μl Tris pH 7.4, 10 mM
d) Enzyme mix (for 1 384 well plate=3520 μl) (5 μg/ml) • Add 11.73 μl of DGAT membrane stock (1500 μg/ml stock) to 3508 μl assay buffer.
e) Stop mix (for 1 384 well plate=7.68 ml) (250 mM) • Add 384 μl of N-ethylmaleimide (5M) to 3.456 ml DMSO 100%, and further dilute 3.84 ml of said solution with 3.84 ml DMSO 10%.
DGAT activity in membrane preparations was assayed in 50 mM Tris-HCl (pH 7.4), 150 mM MgCl2, 1 mM EDTA and 0.2% BSA, containing 50 μM DAG, 32 μg/ml PC/PS and 8.4 μM [^3H]-oleoylCoA (at a specific activity of 30 nCi/well) in a final volume of 50 μl in 384-well format using the red shifted Basic Image FlashPlate™ (Perkin Elmer Cat.No. SMP400).
In detail, 10 μl enzyme mix and 10 μl substrate mix were added to 30 μl of assay buffer, optionally in the presence of 1 μl DMSO (blank and controls) or 1 μl of the compound to be tested. This reaction mixture was incubated for 120 minutes at 37° C. and the enzymatic reaction stopped by adding 20 μl of the stop mix. The plates were sealed and the vesicles allowed to settle overnight at room temperature. Plates were centrifuged for 5 minutes at 1500 rpm and measured in Leadseeker. […]

| Compound | IC50 [nM] |
| --- | --- |
| CC(C)CC(NC(=O)OC(C)(C)C)C(=O)Nc1ccc(C2CCN(C(=O)Nc3c(Cl)cccc3Cl)CC2)cc1 (single isomer, unassigned) [Compound 33] | 35.5 |
| CC(O)c1cc(Cl)c(NC(=O)N2CCN(c3ccc(NC(=O)CCCc4ccccc4)cc3)CC2)c(Cl)c1 (single isomer, unassigned) [Compound 270] | 2.14 |
| CC(O)c1cc(Cl)c(NC(=O)N2CCN(c3ccc(NC(=O)CCCc4ccccc4)cc3)CC2)c(Cl)c1 (single isomer, unassigned) [Compound 271] | 3.24 |
| CC(=O)NC1(C(=O)Nc2ccc(N3CCN(C(=O)Nc4c(Cl)cccc4Cl)CC3)cc2)CCCC1 [Compound 2] | 2880 |
| O=C(CCN(Cc1ccccc1Cl)S(=O)(=O)c1ccccc1[N+](=O)[O-])Nc1ccc(N2CCN(C(=O)Nc3c(Cl)cccc3Cl)CC2)cc1 [Compound 6] | 46.8 |
| CCCCCCC(=O)Nc1ccc(N2CCN(C(=O)N(C)c3c(Cl)cccc3Cl)CC2)cc1 [Compound 10] | 1100 |
| O=C(CCCc1ccccc1)Nc1ccc(N2CCN(C(=O)Nc3c(Cl)cc(OC(F)(F)F)cc3Cl)CC2)cc1 [Compound 13] | 29.5 |
| COc1ccc(CC(=O)Nc2ccc(N3CCN(C(=O)Nc4c(Cl)cc(OC)cc4Cl)CC3)cc2)cc1 [Compound 15] | 4.57 |
| Cc1ccc(CC(=O)Nc2ccc(N3CCN(S(=O)(=O)c4ccccc4C)CC3)cc2)c(C)c1 [Compound 17] | 2240 |
| C=CCNCC(=O)Nc1ccc(C2CCN(C(=O)Nc3c(Cl)cccc3Cl)CC2)cc1 [Compound 20] | 575 |
| CC(CN)C(=O)Nc1ccc(C2CCN(C(=O)Nc3c(Cl)cccc3Cl)CC2)cc1 (stereo not drawn) [Compound 23] | 2570 |
| O=C(CCCc1ccccc1)Nc1ccc(N2CCN(C(=O)Nc3c(Cl)cc(C(=O)O)cc3Cl)CC2)cc1 [Compound 27] | 33.9 |
| Cc1ccc(CC(=O)Nc2ccc(N3CCN(C(=O)Nc4cccc5ccccc45)CC3)cc2)c(C)c1 [Compound 38] | 490 |
| CC(C)(C)OC(=O)N1CCCC1CC(=O)Nc1ccc(C2CCN(C(=O)Nc3c(Cl)cccc3Cl)CC2)cc1 (stereo not drawn) [Compound 39] | 17 |
| CN(CC(=O)Nc1ccc(C2CCN(C(=O)Nc3c(Cl)cccc3Cl)CC2)cc1)C(=O)OC(C)(C)C [Compound 40] | 7.76 |
| CC(=O)NCCC(=O)Nc1ccc(N2CCN(C(=O)Nc3c(Cl)cccc3Cl)CC2)cc1 [Compound 44] | 5130 |
| COC(=O)c1cc(Cl)c(NC(=O)N2CCN(c3ccc(NC(=O)CCCc4ccccc4)cc3)CC2)c(Cl)c1 [Compound 47] | 135 |
| O=C(CCCc1ccccc1)Nc1ccc(N2CCN(C(=O)Cc3c(Cl)cccc3Cl)CC2)cc1 [Compound 52] | 35.5 |
| CC(=O)c1cc(Cl)c(NC(=O)N2CCN(c3ccc(NC(=O)CCCc4ccccc4)cc3)CC2)c(Cl)c1 [Compound 53] | 46.8 |
| CC(N)c1cc(Cl)c(NC(=O)N2CCN(c3ccc(NC(=O)CCCc4ccccc4)cc3)CC2)c(Cl)c1 (stereo not drawn) [Compound 55] | 10.2 |
| CC(NCCCO)c1cc(Cl)c(NC(=O)N2CCN(c3ccc(NC(=O)CCCc4ccccc4)cc3)CC2)c(Cl)c1 (stereo not drawn) [Compound 57] | 10.7 |
| COc1ccc(NC(=O)N2CCN(c3ccc(NC(=O)CCCc4ccccc4)cc3)CC2)c(C)c1 [Compound 65] | 22.9 |
| O=C(CCCc1ccccc1)Nc1ccc(N2CCN(C(=O)Nc3ccccc3C(F)(F)F)CC2)cc1 [Compound 70] | 138 |

| Compound | IC50 [nM] |
| --- | --- |
| COC(=O)c1cccc(NC(=O)N2CCN(c3ccc(NC(=O)CCCc4ccccc4)cc3)CC2)c1C [Compound 72] | 490 |
| COc1ccc(NC(=O)N2CCN(c3ccc(NC(=O)CCCc4ccccc4)cc3)CC2)c([N+](=O)[O-])c1 [Compound 74] | 174 |
| COc1ccc(NC(=O)N2CCN(c3ccc(NC(=O)CCCc4ccccc4)cc3)CC2)c(OC)c1 [Compound 75] | 603 |
| COc1ccc(C)cc1NC(=O)N1CCN(c2ccc(NC(=O)CCCc3ccccc3)cc2)CC1 [Compound 76] | 5620 |
| O=C(CCCc1ccccc1)Nc1ccc(N2CCN(C(=O)Nc3ccccc3[N+](=O)[O-])CC2)cc1 [Compound 80] | 589 |
| Cc1cccc(NCC(=O)Nc2ccc(C3CCN(C(=O)Nc4c(Cl)cccc4Cl)CC3)cc2)c1 [Compound 97] | 49 |
| CC1CN(CC(=O)Nc2ccc(C3CCN(C(=O)Nc4c(Cl)cccc4Cl)CC3)cc2)CC(C)O1 (stereo not drawn) [Compound 98] | 50.1 |
| CCCCCCCN(C)CC(=O)Nc1ccc(C2CCN(C(=O)Nc3c(Cl)cccc3Cl)CC2)cc1 [Compound 99] | 25.7 |
| O=C(CNc1ccccc1)Nc1ccc(C2CCN(C(=O)Nc3c(Cl)cccc3Cl)CC2)cc1 [Compound 100] | 87.1 |
| CCOC(=O)c1ccc(N2CCCN(CC(=O)Nc3ccc(C4CCN(C(=O)Nc5c(Cl)cccc5Cl)CC4)cc3)CC2)cc1 [Compound 101] | 138 |
| O=C(CN1CCN(c2cccc(C(F)(F)F)c2)CC1)Nc1ccc(C2CCN(C(=O)Nc3c(Cl)cccc3Cl)CC2)cc1 [Compound 103] | 398 |
| Cc1ccc(C)c(N2CCN(CC(=O)Nc3ccc(C4CCN(C(=O)Nc5c(Cl)cccc5Cl)CC4)cc3)CC2)c1 [Compound 104] | 126 |
| Cc1cc(C)cc(N2CCN(CC(=O)Nc3ccc(C4CCN(C(=O)Nc5c(Cl)cccc5Cl)CC4)cc3)CC2)c1 [Compound 105] | 170 |
| CCc1cccc(N2CCN(CC(=O)Nc3ccc(C4CCN(C(=O)Nc5c(Cl)cccc5Cl)CC4)cc3)CC2)c1 [Compound 106] | 229 |
| O=C(CN1CCC(F)(F)CC1)Nc1ccc(C2CCN(C(=O)Nc3c(Cl)cccc3Cl)CC2)cc1 [Compound 107] | 182 |
| CC1(C)CCN(CC(=O)Nc2ccc(C3CCN(C(=O)Nc4c(Cl)cccc4Cl)CC3)cc2)CC1 [Compound 108] | 251 |
| CN(C)CC(=O)Nc1ccc(C2CCN(C(=O)Nc3c(Cl)cccc3Cl)CC2)cc1 [Compound 109] | 2340 |
| COCCN(C)CC(=O)Nc1ccc(C2CCN(C(=O)Nc3c(Cl)cccc3Cl)CC2)cc1 [Compound 110] | 1410 |
| O=C(CN1CCOCC1)Nc1ccc(C2CCN(C(=O)Nc3c(Cl)cccc3Cl)CC2)cc1 [Compound 111] | 1200 |
| O=C(CN1CCCCC1)Nc1ccc(C2CCN(C(=O)Nc3c(Cl)cccc3Cl)CC2)cc1 [Compound 112] | 794 |
| CCCCCCCNCC(=O)Nc1ccc(C2CCN(C(=O)Nc3c(Cl)cccc3Cl)CC2)cc1 [Compound 115] | 204 |
| O=C(CNCC1CC1)Nc1ccc(C2CCN(C(=O)Nc3c(Cl)cccc3Cl)CC2)cc1 [Compound 116] | 575 |
